The test system of data set [1] is multiple myeloma (RPMI8226, MM1S, ARP-GL, CAG-GL, OPM2-GL, SKO-007-GL, U266-GL, MM1R cells). Briefly: toxicity by alamarBlue, multiple myeloma cell lines. The conditions noted are these: mean of 8 cell lines. The class given is cell-based, human. Here is the method:
(§1) The toxicity of compounds 42-45 and their IC50 was determined on a panel of human tumor cell lines of multiple myeloma (RPMI8226, MM1S, MM1R, ARP-GL, CAG-GL, OPM2-GL, SKO-007-GL, U266-GL,) and lung cancer (H299-GL, H522-GL, H647-GL, A549-GL, A549-GL, HI993, H1075-GL, HI373, H17030) origin. Tumor cells were dissociated into a single-cell suspension by Trypsin/Collagenase IV treatment and 500 cells per well were aliquoted into each well of 384 microwell plates in 50 μl of RPMI medium with 10% FCS. Compounds 42-45 were dissolved in DMSO and serially diluted in RPMI medium plus 10% FCS and added (1 mM to 1 nM) to quadruplicate wells containing tumor cells. Dilutions of DMSO without compound were used as a control. After 18 hrs or 2 days, the cultures were pulsed with 6 μl of alamarBlue® (Invitrogen Inc. Grand Island, N.Y.) and incubated overnight. The alamarBlue® provides a cell growth indicator based on detection of metabolic activity. The assay system incorporates an oxidation-reduction indicator that both fluoresces and changes color in response to chemical reduction of growth medium resulting from cell growth. The fluorescence intensity was measured using a Synergy H1 Microplate Reader (Biotek Inc, Winooski, VT) and a dose-response curve established for IC50 determination.

The subject of data set [2] is human tumor cell lines of multiple myeloma and lung cancer. The data set can be described thus: toxicity by alamarBlue, whole panel. It is filed as cell-based. Here is the method: as §1
Data set [3] has as its system H929 multiple myeloma cells. Briefly: multiple myeloma transwell migration towards SDF-1α. The class given is cell-based. To be noted: pretreatment 8 h, transmigration 6 h. As to the method:
(§2) Multiple myeloma cell chemotaxis was performed towards a SDF-1α in a modified Boyden chamber consisting of a cell culture insert (4.26 mm diameter, 8-μm pore polyester membrane) seated in each well of a 96-well plate (HTS Transwell-96 System, Corning). Briefly, multiple myeloma cells were grown as subconfluent cultures then starved for 24 hours in serum-free IMDM medium. Single-cell suspensions were prepared by mechanical dissociation, then the cells were counted and a total of 5.10^4 cells suspended in serum-free IMDM medium were seeded into the upper chamber, then positioned in a 96-well plate, containing medium with or without SDF-1α (at 200 ng/mL). […] Migrastatin analogs or DMSO (vehicle) were added to the medium at 0.5% in both chambers. Migration assays were carried out for 6 hours in a humidified incubator at 37° C. with 5% CO2. At the assay endpoint, the inserts were removed and the migrating cells were counted in the well. The migration in response to the test condition was calculated relative to the DMSO vehicle control.

The test system of data set [4] is CAG multiple myeloma cells. Described as above. The class given is cell-based. The conditions noted are these: pretreatment 8 h, transmigration 6 h. As to the method: as §2
In data set [5] the test system is lung cancer (H299-GL, H522-GL, H647-GL, A549-GL, H1993, H1075-GL, H1373-GL H1703 cells). Briefly: toxicity by alamarBlue, lung cancer cell lines. The class given is cell-based. To be noted: mean of 8 cell lines. Here is the method:
Dilutions of DMSO without compound were used as a control. After 18 hrs or 2 days, the cultures were pulsed with 6 μl of alamarBlue® (Invitrogen Inc. Grand Island, N.Y.) and incubated overnight. The alamarBlue® provides a cell growth indicator based on detection of metabolic activity. The assay system incorporates an oxidation-reduction indicator that both fluoresces and changes color in response to chemical reduction of growth medium resulting from cell growth. The fluorescence intensity was measured using a Synergy H1 Microplate Reader (Biotek Inc, Winooski, VT) and a dose-response curve established for IC50 determination.

Each structure is given as a SMILES string.

`CNC(=O)CO[C@H]1[C@H](C)/C=C(/C)COCCCCC/C=C/[C@@H]1OC` [Compound 44]: the “Estimated lethal doses (LD50)” value in data set [1] (18 h exposure) is 182.5 µM; in data set [1] (48 h exposure), 210.6 µM; in data set [5] (18 h exposure), 299.7 µM; in data set [5] (48 h exposure) it was 316.7 µM. For the same molecule, the IC50 in data set [2] is 300 to 795 µM. For the same molecule, the “% of migration relative to DMSO control” value in data set [3] (5 μM) is given as 81.48%; in data set [3] (250 μM) it was 4.06%; in data set [4] (5 μM), 86.22%; in data set [4] (250 μM) it was 0.05%.
With `COC(=O)CO[C@H]1[C@H](C)/C=C(/C)COCCCCC/C=C/[C@@H]1OC` [Compound 42], the “Estimated lethal doses (LD50)” value was 515.2 µM in data set [1] (18 h exposure), 476.4 µM in data set [1] (48 h exposure), 741.2 µM in data set [5] (18 h exposure) and 602.7 µM in data set [5] (48 h exposure). In addition, in data set [2], the concentration for half-maximal inhibition (IC50) fell in the range of 300 to 795 µM. The “% of migration relative to DMSO control” value in data set [3] (5 μM) worked out at 91.03%; in data set [3] (250 μM), 7.08%; in data set [4] (5 μM), 93.63%; in data set [4] (250 μM) it was 0.23%.
As for `CO[C@H]1/C=C/CCCCCOC/C(C)=C\[C@@H](C)[C@@H]1OCCO` [Compound 43], the “Estimated lethal doses (LD50)” value is 530.8 µM in data set [1] (18 h exposure), 406.1 µM in data set [1] (48 h exposure), 523.9 µM in data set [5] (18 h exposure) and 510.7 µM in data set [5] (48 h exposure). Moreover, the IC50 in data set [2] is 300 to 795 µM. For the same molecule, the “% of migration relative to DMSO control” value amounted to 52.26% in data set [3] (5 μM), 0.98% in data set [3] (250 μM), 82.04% in data set [4] (5 μM) and 0.71% in data set [4] (250 μM).
Take `CCNC(=O)O[C@H]1[C@H](C)/C=C(/C)COCCCCC/C=C/[C@@H]1OC` [Compound 45]: the “Estimated lethal doses (LD50)” value in data set [1] (18 h exposure) is 275.6 µM; in data set [1] (48 h exposure), 217.3 µM; in data set [5] (18 h exposure), 446.9 µM; in data set [5] (48 h exposure), 446.8 µM. Further, in data set [2], the IC50 is 300 to 795 µM. Besides, the “% of migration relative to DMSO control” value is recorded as 62.38% in data set [3] (5 μM), 5.51% in data set [3] (250 μM), 54.48% in data set [4] (5 μM) and 0.58% in data set [4] (250 μM).
